Data from patent publication US7511078B2, “Antiallergic agents, drugs, foods, drinks or cosmetics containing them and process for producing the same” (Kikkoman Corporation, priority 2001, dated 2009).
Values after ≈ are worked out from the molar mass of the structure shown. Counter-ions that a name gives are not always drawn.

Assays:
rat fat cells = assay: Histamine-release inhibiting activity from rat fat cells (Compound 48/80 induced); assay type: cell-based; conditions: for IC50: 50% inhibition rate; for inhibition at 250 µg/mL: sample concentration 250 μg/ml; for histamine-release inhibiting activity (FIG. 7): sample solutions 100 μg/ml each; for inhibition at 25 µg/mL: sample concentration 25 μg/ml; for inhibition at 75 µg/mL: sample concentration 75 μg/ml; for activity relative to the known agents (caffeic acid, ketotifen fumarate): from IC50 values of histamine-release inhibition
Procedure: Cells were collected from the abdominal cavity of rats immediately after being sacrificed by exsanguinations using heparin-containing fat cell buffer (composition: 0.150 M NaCl, 3.7 mM KCl, 3.0 mM Na2HPO4, 3.5 mM KH2PO4, 0.9 mM CaCl2, 5.6 mM D-glucose, 0.1% (w/v) gelatin) (Lectures on Experimental Biopharmacology, Vol.12, Inflammations and Allergies II, edited by Kazuo Ohuchi, published by Hirokawa Publishing, 1993, page 372). After washing the cells, the above heparin-containing fat cell buffer was added to a concentration of 2.0×10^5 cells/ml, and this was used as the cell suspension.
Meanwhile, 3 mg of tomato extract were dissolved in 1 ml of 1% dimethyl sulfoxide (DMSO) and used as a sample solution. Further, the naringenin chalcone obtained in Example 1-3, and ketotifen fumarate, which is known to have an antiallergic activity, were respectively dissolved in the heparin-containing fat cell buffer containing 0.15% DMSO (final concentration), and the tricaffeoylquinic acid obtained in Example 1-4, and caffeic acid, which is known to have an antiallergic activity, were respectively dissolved in heparin-containing fat cell buffer containing 0.08% ethanol (final concentration), and each of these were used as sample solutions having concentrations of 25-250 μg/ml.
80 μl of the above cell suspension were added to 20 μl of the sample solution and the mixture was incubated at 37° C. for 10 minutes. Subsequently, 20 μl of Compound 48/80 (5 μg/ml) were added as histamine-degranulation inducer, and the mixture was incubated for 10 minutes. After the mixture was cooled with ice, it was separated by centrifugation (1,500×g, 5 minutes, 4° C.), and the free histamine in the supernatant was measured by high-performance liquid chromatography equipped with a fluorescent detector.
Histamine-release inhibiting activity was calculated from the measured histamine values using calculation formula (1) shown below. Histamine-release inhibition rate (%)=(1−(S−B)/(C−B))×100 (1) • B: Amount of histamine released from control cells in the absence of inducer • C: Amount of histamine released from cells in the presence of inducer • S: Amount of histamine released from cells in the presence of test sample and inducer

[1] = Cytotoxicity test (Trypan Blue, rat abdominal cavity cells); assay type: cell-based; conditions: various concentrations, 37° C., 0-120 minutes
Procedure: To 80 μl of cell suspension (1-2×10^6 cells/ml) prepared in the same manner as in Example 2 were added 20 μl of sample solutions (Tomato Extract 1, naringenin chalcone, tricaffeoylquinic acid or dicaffeoylsuccinylquinic acid obtained in Example 1) with various concentrations, and the mixture was cultured at 37° C. Each of 10 μl aliquots was taken after 0, 10, 20, 60 and 120 minutes from the start of culturing, and each aliquot was added to 20 μl of 0.4% Trypan Blue prepared in advance. Judging those cells that were stained with blue pigment to be dead cells, the number of cells was counted under microscopic examination using a hemocytometer. Viability (percentage of viable cells to the total number of cells) and the number of viable cells were measured.

rat macrophages = assay: Leukotriene B4 release inhibiting activity from rat macrophages (opsonized zymosan, ELISA); assay type: cell-based; conditions: Macrophage, read-out: Inhibition rate (%); for inhibition at 5 µg/mL: sample concentration 5 μg/ml; for inhibition at 50 µg/mL: sample concentration 50 μg/ml; for inhibition at 500 µg/mL: sample concentration 500 μg/ml
Procedure: Soluble starch (Wako, grade 1) and Bactopeptone (Difco) were suspended in physiological saline (0.9% NaCl, Ohtsuka Pharmaceutical, Co.) to have a concentration of 5% each. After sterilizing with an autoclave (121° C., 20 minutes), the suspension was cooled down to room temperature. The suspension was administered by injection into rat abdominal cavity in an amount of 5 mL per 100 g of body weight under ether anesthesia (using a 21G needle).
Four days later, the rats were sacrificed by exsanguination from the carotid artery under ether anesthesia. After adequately exsanguinating the rats, the rats were sprayed with ethanol and placed in a clean bench. 25 mL of CMF-HBSS (Ca, Mg free HBSS) were injected into the abdominal cavity followed by adequately rubbing the abdomen. The rats were laparotimized using sterilized instruments, and the solution within the abdominal cavity was collected. The collected solution was filtered using three layers of gauze. The abdominal cavity was further washed with 25 mL of CMF-HBSS (Ca, Mg free HBSS), and the solution was collected in the same manner. The collected cells were washed three times with ice-cold 0.1% BSA-PBS, suspended in 10% FBS-RPMI1640 medium. The cell suspension was dispersed in a 6 cm Petri dish to have 4.5×10^6 cells/3 mL/dish, and incubated for 2 hours in an incubator kept at 5% CO2 and 37° C. Subsequently, the supernatant was discarded, the Petri dish was washed three times with PBS to rinse off non-adherent cells, and the cells adhered onto inside of the Petri dish were used as macrophages. After the macrophages were pre-incubated for 20 minutes in 1% FBS-RPMI1640 medium, zymosan opsoninized using rat serum was added thereto, and the mixture was cultured in an incubator kept at 5% CO2 and 37° C. for a predetermined period of time. Incidentally, samples were added 30 minutes before addition of zymosan. After completion of culture, supernatant from the culture was recovered and the amount of LTB4 in the supernatant was measured using an ELISA kit (Leukotriene B4 EIA Kit, Cayman). Activity of inhibiting release of leukotriene B4 was calculated from the measured leukotriene B4 values using the following calculation formula (2): Leukotriene B4 release inhibition rate (%)=(1−(S−B)/(C−B))×100 (2) • B: Amount of leukotriene B4 released from control cells in the absence of inducer • C: Amount of leukotriene B4 released from cells in the presence of inducer • S: Amount of leukotriene B4 released from cells in the presence of test sample and inducer

mouse auricular edema = assay: Anaphylaxis inhibitory action in mouse auricular edema (anti-TNP-IgE / picryl chloride); assay type: in vivo
Procedure: C3H/Hecrj, 7-week-old female mice having body weights of 15-20 g were used in groups of five animals each. Tomato Extract 1 was suspended in 0.5% CMC-Na (sodium carboxymethyl cellulose) solution, while 0.5% CMC-Na was administered as a control. The samples were administered six times over the course of five days, and measurements were made on day 5. The animals were dosed once a day from day 1 through day 4, and on day 5, they were orally dosed twice, 4 hours before and 30 minutes after administration of anti-TNP-IgE solution. The dose of Tomato Extract 1 was 0.16 mg, 0.8 mg or 4 mg per 1 kg of mouse body weight.
0.2 ml of 1% anti-TNP-IgE solution was administered from the vein of eye ground, and 30 minutes later, sample solution was orally administered. Further 30 minutes later, thickness of the left and right ears were measured. Immediately after that, 10 μl of 0.8% acetone-olive oil (1:1) solution of picryl chloride was applied to each ear. The thickness of the left and right ears of the mice were measured two hours after application, and the difference in ear thickness before and after application was taken to represent edema caused by anaphylaxis. A test of significance was carried out using the Student's t-test.
Measurement was made in the same manner as in (1) above, except for administration method. Samples were administered six times over the course of five days, and measurement was made on day 5. The animals were dosed once a day from day 1 through day 4, and on day 5, they were orally dosed twice, 4 hours before and 30 minutes after administration of anti-TNP-IgE solution. The dose of tricaffeoylquinic acid was 0.16 mg, 0.8 mg, 4 mg or 20 mg per kilogram of mouse body weight.

[2] = Rattus norvegicus, histamine release
[3] = Rattus norvegicus, histamine release, read-out: Inhibition rate (%)

| Compound | IC50 (rat fat cells; [2]) [µg/mL] | histamine-release inhibiting activity (FIG. 7) (rat fat cells) | inhibition at 25 µg/mL (rat fat cells; [3]) [%] | inhibition at 75 µg/mL (rat fat cells; [3]) [%] | cytotoxicity (viability and number of viable cells) [1] | other results |
| --- | --- | --- | --- | --- | --- | --- |
| O=C(O)/C=C/c1ccc(O)c(O)c1 [Caffeic acid, caffeic acid, reference compound] | ~250 (≈ 1390 µM) | more potent in the order of caffeic acid followed by dicaffeoylquinic acid | – | – | – | inhibition at 250 µg/mL (rat fat cells; [3]): 50.1% |
| CN1CCC(=C2c3ccccc3CC(=O)c3sccc32)CC1 [Ketotifen fumarate, ketotifen fumarate, reference compound] | ~250 | – | 0 | 13.1 | – | inhibition at 250 µg/mL (rat fat cells; [3]): 49.4% |
| O=C(/C=C/c1ccc(O)cc1)c1c(O)cc(O)cc1O [Naringenin chalcone, 2′,4′,6′,4-tetrahydroxy-chalcone] | ~70 (≈ 257 µM) | – | 28.2 | 53.9 | no cytotoxicity was observed | inhibition at 5 µg/mL (rat macrophages): 62.3%; inhibition at 50 µg/mL (rat macrophages): 93.5%; inhibition at 500 µg/mL (rat macrophages): 98.2%; anaphylaxis inhibitory action (FIG. 8) (mouse auricular edema; doses 0.0064, 0.032, 0.16 or 0.8 mg per kg): exhibited an anaphylaxis inhibitory action dose-dependently; inhibition at 50 µg/mL (rat fat cells; Rattus norvegicus, histamine release, sample concentration 50 μg/ml, read-out: Inhibition rate (%)): 37.6%; inhibition at 200 µg/mL (rat fat cells; Rattus norvegicus, histamine release, sample concentration 200 μg/ml, read-out: Inhibition rate (%)): 82%; activity relative to the known agents (caffeic acid, ketotifen fumarate) (rat fat cells): roughly 3.5 times |
| O=C(/C=C/c1ccc(O)c(O)c1)OC1CC(O)(C(=O)O)CC(OC(=O)/C=C/c2ccc(O)c(O)c2)C1OC(=O)/C=C/c1ccc(O)c(O)c1 (stereo not drawn) [Tricaffeoylquinic acid, 3,4,5-tricaffeoylquinic acid] | ~25 (≈ 36.8 µM) | exhibited a significantly high activity | 54.1 | 93.2 | no cytotoxicity was observed | inhibition at 5 µg/mL (rat macrophages): 33.5%; inhibition at 50 µg/mL (rat macrophages): 65.8%; inhibition at 500 µg/mL (rat macrophages): 69.7%; anaphylaxis inhibitory action (FIG. 9) (mouse auricular edema; dose 4 mg per kg): exhibited an anaphylaxis inhibitory action; anaphylaxis inhibitory action (FIG. 10) (mouse auricular edema; orally administered, 0.16, 0.8, 4 or 20 mg per kg, six doses over five days): exhibited an anaphylaxis inhibitory action; activity relative to the known agents (caffeic acid, ketotifen fumarate) (rat fat cells): roughly 10 times |
| O=C(/C=C/c1ccc(O)c(O)c1)O[C@@H]1C[C@](O)(C(=O)O)C[C@@H](O)[C@H]1O [chlorogenic acid, reference compound] | – | did not inhibit histamine-release | – | – | – | – |
| O=C(O)CCC(=O)OC1C(OC(=O)/C=C/c2ccc(O)c(O)c2)CC(O)(C(=O)O)CC1OC(=O)/C=C/c1ccc(O)c(O)c1 (stereo not drawn) [dicaffeoylsuccinylquinic acid, 3,5-dicaffeoyl-4-succinylquinic acid] | – | exhibited a significantly high activity | – | – | no cytotoxicity was observed | – |
| O=C(O)[C@]1(O)C[C@@H](O)[C@@H](O)[C@H](O)C1 [quinic acid, reference compound] | – | did not inhibit histamine-release | – | – | – | – |
